# Reference: ChEMBL document CHEMBL1201862, “PubChem BioAssay data set” (2004)
#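 Five compound concentrations were applied to cells in 96-well plates for 48 hours; endpoints were derived by simple linear interpolation of the resulting dose-response curve. GI50 = concentration required for 50% inhibition of growth.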 Activity calls are given as the source filed them. Rule as the data show it: active = GI50 up to about 1.1 µM and inactive = higher.
# How the values were obtained:
# Experiment in all cases: inhibition of tumour cell growth, NCI panel, 48 h
# [1] = system: 786-0
# [2] = system: A498
# [3] = system: A549
# [4] = system: ACHN
# [5] = system: BT-549
# [6] = system: CAKI-1
# [7] = system: CCRF-CEM
# [8] = system: COLO 205
# [9] = system: DU-145
# [10] = system: EKVX
# [11] = system: HCC 2998
# [12] = system: HCT-116
# [13] = system: HCT-15
# [14] = system: HL-60
# [15] = system: HOP-62
# [16] = system: HOP-92
# [17] = system: HT-29
# [18] = system: Hs-578T
# [19] = system: IGROV-1
# [20] = system: K562
# [21] = system: KM12
# [22] = system: LOX IMVI
# [23] = system: M14
# [24] = system: MCF7
# [25] = system: MDA-MB-231
# [26] = system: MDA-MB-435
# [27] = system: MDA-N
# [28] = system: MOLT-4
# [29] = system: Malme-3M
# [30] = system: NCI-H226
# [31] = system: NCI-H23
# [32] = system: NCI-H460
# [33] = system: NCI-H522
# [34] = system: NCI/ADR-RES
# [35] = system: OVCAR-3
# [36] = system: OVCAR-4
# [37] = system: OVCAR-5
# [38] = system: OVCAR-8
# [39] = system: PC-3
# [40] = system: RPMI-8226
# [41] = system: RXF 393
# [42] = system: SF-268
# [43] = system: SF-295
# [44] = system: SF-539
# [45] = system: SK-MEL-28
# [46] = system: SK-MEL-2
# [47] = system: SK-MEL-5
# [48] = system: SK-OV-3
# [49] = system: SN12C
# [50] = system: SNB-19
# [51] = system: SNB-75
# [52] = system: SR
# [53] = system: SW-620
# [54] = system: T47D
# [55] = system: TK-10
# [56] = system: U-251
# [57] = system: UACC-257
# [58] = system: UACC-62
# [59] = system: UO-31
# [60] = system: DLD-1
# [61] = system: DMS-114
# [62] = system: DMS-273
# [63] = system: KM-20L2
# [64] = system: LXFL 529
# [65] = system: M19-MEL
# [66] = system: SNB-78
smiles,measurement,setting,value
CCOc1cccc(/C=N\c2ccccc2SSc2ccccc2/N=C\c2cccc(OCC)c2O)c1O,GI50,[1],7.6 µM (inactive)
same,GI50,[2],24.2 µM (inactive)
same,GI50,[3],10.7 µM (inactive)
same,GI50,[4],13.5 µM (inactive)
same,GI50,[5],1.58 µM (inactive)
same,GI50,[6],9.95 µM (inactive)
same,GI50,[7],3.32 µM (inactive)
same,GI50,[8],3.02 µM (inactive)
same,GI50,[9],16.6 µM (inactive)
same,GI50,[10],3.86 µM (inactive)
same,GI50,[11],17.2 µM (inactive)
same,GI50,[12],1.73 µM (inactive)
same,GI50,[13],3.44 µM
same,GI50,[14],3.7 µM (inactive)
same,GI50,[15],6.92 µM (inactive)
same,GI50,[16],11.5 µM (inactive)
same,GI50,[17],14.6 µM (inactive)
same,GI50,[18],16.9 µM (inactive)
same,GI50,[19],2.92 µM (inactive)
same,GI50,[20],6.55 µM (inactive)
same,GI50,[21],6.82 µM (inactive)
same,GI50,[22],4.47 µM (inactive)
same,GI50,[23],4.06 µM (inactive)
same,GI50,[24],0.326 µM (active)
same,GI50,[25],8.95 µM (inactive)
same,GI50,[26],11.5 µM (inactive)
same,GI50,[27],14.2 µM (inactive)
same,GI50,[28],3.38 µM (inactive)
same,GI50,[29],10.2 µM (inactive)
same,GI50,[30],6.41 µM (inactive)
same,GI50,[31],5.08 µM (inactive)
same,GI50,[32],5.48 µM (inactive)
same,GI50,[33],2.95 µM (inactive)
same,GI50,[34],3.55 µM (inactive)
same,GI50,[35],2.62 µM (inactive)
same,GI50,[36],4 µM (inactive)
same,GI50,[37],4.56 µM (inactive)
same,GI50,[38],2.52 µM (inactive)
same,GI50,[39],3.17 µM (inactive)
same,GI50,[40],3.73 µM (inactive)
same,GI50,[41],7.46 µM (inactive)
same,GI50,[42],4.22 µM (inactive)
same,GI50,[43],12.6 µM (inactive)
same,GI50,[44],26.5 µM (inactive)
same,GI50,[45],12.4 µM (inactive)
same,GI50,[46],16.5 µM (inactive)
same,GI50,[47],2.21 µM (inactive)
same,GI50,[48],23.2 µM (inactive)
same,GI50,[49],9.79 µM (inactive)
same,GI50,[50],11.2 µM (inactive)
same,GI50,[51],19.7 µM (inactive)
same,GI50,[52],4.25 µM (inactive)
same,GI50,[53],8.49 µM (inactive)
same,GI50,[54],1.26 µM (inactive)
same,GI50,[55],29 µM (inactive)
same,GI50,[56],3.64 µM (inactive)
same,GI50,[57],5.77 µM (inactive)
same,GI50,[58],4.28 µM (inactive)
same,GI50,[59],13.7 µM (inactive)
CC1(c2cccc(C3CCC4(C=CC3=O)OCCO4)c2)OCCO1 (centres undefined),GI50,[1],4.62 µM (inactive)
same,GI50,[2],16.9 µM (inactive)
same,GI50,[3],18.5 µM (inactive)
same,GI50,[4],4.91 µM (inactive)
same,GI50,[6],8.61 µM (inactive)
same,GI50,[7],2.49 µM (inactive)
same,GI50,[8],6.14 µM (inactive)
same,GI50,[60],3.35 µM (inactive)
same,GI50,[61],1.8 µM (inactive)
same,GI50,[62],10.9 µM (inactive)
same,GI50,[9],17.9 µM (inactive)
same,GI50,[10],19.6 µM (inactive)
same,GI50,[11],18.6 µM (inactive)
same,GI50,[12],4.2 µM (inactive)
same,GI50,[13],5.36 µM
same,GI50,[14],1.62 µM (inactive)
same,GI50,[15],31 µM (inactive)
same,GI50,[16],5.81 µM (inactive)
same,GI50,[17],11.8 µM (inactive)
same,GI50,[18],15.3 µM (inactive)
same,GI50,[19],18.4 µM (inactive)
same,GI50,[20],3.08 µM (inactive)
same,GI50,[63],4.07 µM (inactive)
same,GI50,[21],17.4 µM (inactive)
same,GI50,[22],11.8 µM (inactive)
same,GI50,[64],1.62 µM (inactive)
same,GI50,[23],6.97 µM (inactive)
same,GI50,[65],5.62 µM (inactive)
same,GI50,[24],11 µM (inactive)
same,GI50,[25],13.2 µM (inactive)
same,GI50,[26],13.4 µM (inactive)
same,GI50,[27],10.3 µM (inactive)
same,GI50,[28],2.84 µM (inactive)
same,GI50,[29],4.71 µM (inactive)
same,GI50,[30],25.9 µM (inactive)
same,GI50,[31],11.5 µM (inactive)
same,GI50,[32],16.4 µM (inactive)
same,GI50,[33],1.43 µM (inactive)
same,GI50,[34],14.5 µM (inactive)
same,GI50,[35],5.2 µM (inactive)
same,GI50,[36],7.28 µM (inactive)
same,GI50,[37],18.2 µM (inactive)
same,GI50,[38],13.5 µM (inactive)
same,GI50,[39],17.2 µM (inactive)
same,GI50,[40],4.76 µM (inactive)
same,GI50,[41],5.9 µM (inactive)
same,GI50,[42],17.3 µM (inactive)
same,GI50,[43],34.3 µM (inactive)
same,GI50,[44],14.8 µM (inactive)
same,GI50,[45],16 µM (inactive)
same,GI50,[46],12.9 µM (inactive)
same,GI50,[47],14.6 µM (inactive)
same,GI50,[48],30.8 µM (inactive)
same,GI50,[49],14.5 µM (inactive)
same,GI50,[50],15.9 µM (inactive)
same,GI50,[51],16.3 µM (inactive)
same,GI50,[66],19.4 µM (inactive)
same,GI50,[52],3.12 µM (inactive)
same,GI50,[53],2.9 µM (inactive)
same,GI50,[54],8.49 µM (inactive)
same,GI50,[55],8.2 µM (inactive)
same,GI50,[56],18.1 µM (inactive)
same,GI50,[57],9.48 µM (inactive)
same,GI50,[58],6.52 µM (inactive)
same,GI50,[59],6.64 µM (inactive)
